# In ChEMBL document CHEMBL1201862, “PubChem BioAssay data set” (2004):
# Calls of active or inactive are those of the source.
# Target: Hepatocyte growth factor receptor (Homo sapiens, UniProt P08581);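 further: kinase panel profiling across the kinome, with MET as the panel member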
# Type: functional
# Chain of Hepatocyte growth factor receptor (P08581 whole entry): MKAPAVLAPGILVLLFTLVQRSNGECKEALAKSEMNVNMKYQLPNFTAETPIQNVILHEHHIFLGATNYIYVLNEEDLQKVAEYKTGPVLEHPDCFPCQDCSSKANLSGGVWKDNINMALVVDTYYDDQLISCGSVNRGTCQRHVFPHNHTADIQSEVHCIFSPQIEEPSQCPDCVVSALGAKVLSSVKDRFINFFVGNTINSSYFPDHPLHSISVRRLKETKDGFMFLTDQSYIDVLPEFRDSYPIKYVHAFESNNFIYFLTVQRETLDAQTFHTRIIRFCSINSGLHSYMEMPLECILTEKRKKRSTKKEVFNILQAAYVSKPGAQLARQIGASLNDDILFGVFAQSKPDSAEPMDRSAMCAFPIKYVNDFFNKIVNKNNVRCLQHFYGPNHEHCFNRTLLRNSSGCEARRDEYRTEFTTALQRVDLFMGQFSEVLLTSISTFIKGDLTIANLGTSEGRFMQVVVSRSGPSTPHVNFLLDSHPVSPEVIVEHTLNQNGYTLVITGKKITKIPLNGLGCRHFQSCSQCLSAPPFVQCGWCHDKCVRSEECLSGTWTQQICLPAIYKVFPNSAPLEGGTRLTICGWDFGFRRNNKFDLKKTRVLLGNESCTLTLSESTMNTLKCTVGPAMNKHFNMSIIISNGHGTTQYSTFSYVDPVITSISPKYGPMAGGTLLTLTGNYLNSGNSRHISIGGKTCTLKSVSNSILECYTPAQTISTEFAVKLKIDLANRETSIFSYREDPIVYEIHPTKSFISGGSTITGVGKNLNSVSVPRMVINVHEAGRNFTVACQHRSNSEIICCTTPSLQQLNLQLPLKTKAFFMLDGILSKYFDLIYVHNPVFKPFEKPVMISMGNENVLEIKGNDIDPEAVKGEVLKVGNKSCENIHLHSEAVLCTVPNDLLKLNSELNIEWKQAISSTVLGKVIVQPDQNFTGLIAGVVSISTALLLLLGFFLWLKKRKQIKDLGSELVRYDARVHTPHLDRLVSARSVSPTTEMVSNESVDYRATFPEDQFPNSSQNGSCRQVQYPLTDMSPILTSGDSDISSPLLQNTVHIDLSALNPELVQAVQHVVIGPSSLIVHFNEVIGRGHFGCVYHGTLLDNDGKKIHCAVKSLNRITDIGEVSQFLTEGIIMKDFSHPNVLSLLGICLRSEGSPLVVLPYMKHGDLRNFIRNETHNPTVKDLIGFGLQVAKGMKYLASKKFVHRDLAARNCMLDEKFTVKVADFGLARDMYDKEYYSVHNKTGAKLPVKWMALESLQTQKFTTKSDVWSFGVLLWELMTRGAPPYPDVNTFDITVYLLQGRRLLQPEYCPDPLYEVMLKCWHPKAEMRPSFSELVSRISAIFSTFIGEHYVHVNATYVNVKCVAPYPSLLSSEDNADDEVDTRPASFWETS
row,Compound,Ki
1,CCC1CC(NS(=O)(=O)C2CC2)CC1c1ncc2cnc3[nH]ccc3n12 (stereo unspecified),> 2.51 µM (inactive)
2,O=C(Nc1cccc(C(F)(F)F)n1)Nc1ccnc2cc(OC(F)F)ccc12,> 2.51 µM (inactive)
3,O=C(Nc1cccc(C(F)(F)F)n1)Nc1ccnc2cc(Cl)ccc12,> 2.51 µM (inactive)

# Target: Macrophage-stimulating protein receptor (Homo sapiens, UniProt Q04912)
# Assay: Navigating the Kinome. Panel member name: MST1R
# Type: functional
row,Compound,Ki
1,CCC1CC(NS(=O)(=O)C2CC2)CC1c1ncc2cnc3[nH]ccc3n12 (stereo unspecified),2 µM (active)
2,O=C(Nc1cccc(C(F)(F)F)n1)Nc1ccnc2cc(OC(F)F)ccc12,> 3.98 µM (inactive)
3,O=c1[nH]c2cc(Br)cnc2[nH]1,63.1 µM (active)
4,O=C(Nc1cccc(C(F)(F)F)n1)Nc1ccnc2cc(Cl)ccc12,> 3.98 µM (inactive)

# Target: Mitogen-activated protein kinase 14 (Homo sapiens, UniProt Q16539);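 further: part of a kinome-wide panel, MAPK14 entry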
# Type: functional
# Chain of Mitogen-activated protein kinase 14 (Q16539 whole entry): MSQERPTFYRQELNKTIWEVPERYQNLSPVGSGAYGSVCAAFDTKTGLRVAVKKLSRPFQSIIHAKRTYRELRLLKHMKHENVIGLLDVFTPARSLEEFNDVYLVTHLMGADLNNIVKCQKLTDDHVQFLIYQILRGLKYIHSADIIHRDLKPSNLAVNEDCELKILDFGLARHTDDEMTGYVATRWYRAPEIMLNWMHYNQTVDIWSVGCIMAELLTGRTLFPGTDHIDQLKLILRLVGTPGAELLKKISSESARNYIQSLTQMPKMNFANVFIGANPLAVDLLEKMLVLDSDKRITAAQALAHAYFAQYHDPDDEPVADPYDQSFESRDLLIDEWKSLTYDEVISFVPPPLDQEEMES
row,Compound,Ki
1,CCC1CC(NS(=O)(=O)C2CC2)CC1c1ncc2cnc3[nH]ccc3n12 (stereo unspecified),> 3.98 µM (inactive)
2,O=C(Nc1cccc(C(F)(F)F)n1)Nc1ccnc2cc(OC(F)F)ccc12,> 3.98 µM (inactive)
3,O=C(Nc1cccc(C(F)(F)F)n1)Nc1ccnc2cc(Cl)ccc12,> 3.98 µM (inactive)

# Target: Dual specificity protein kinase CLK2 (Homo sapiens, UniProt P49760)
# Type: functional
# Chain of Dual specificity protein kinase CLK2 (P49760 whole entry): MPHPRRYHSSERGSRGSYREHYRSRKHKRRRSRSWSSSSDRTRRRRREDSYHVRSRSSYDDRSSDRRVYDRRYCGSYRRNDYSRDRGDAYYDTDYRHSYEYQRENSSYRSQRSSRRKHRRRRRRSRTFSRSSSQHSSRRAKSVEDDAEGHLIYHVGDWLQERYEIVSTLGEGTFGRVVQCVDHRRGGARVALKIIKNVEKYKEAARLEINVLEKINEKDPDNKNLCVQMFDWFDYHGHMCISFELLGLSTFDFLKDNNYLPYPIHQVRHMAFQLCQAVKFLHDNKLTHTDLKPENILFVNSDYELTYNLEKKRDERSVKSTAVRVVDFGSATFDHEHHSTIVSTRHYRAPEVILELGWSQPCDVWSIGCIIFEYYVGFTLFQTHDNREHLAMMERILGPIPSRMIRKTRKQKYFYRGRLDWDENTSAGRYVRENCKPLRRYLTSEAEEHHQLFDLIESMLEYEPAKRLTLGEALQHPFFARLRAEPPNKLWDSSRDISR
row,Compound,Ki
1,CCC1CC(NS(=O)(=O)C2CC2)CC1c1ncc2cnc3[nH]ccc3n12 (stereo unspecified),> 3.98 µM (inactive)
2,O=C(Nc1cccc(C(F)(F)F)n1)Nc1ccnc2cc(OC(F)F)ccc12,> 3.98 µM (inactive)
3,O=c1[nH]c2cc(Br)cnc2[nH]1,25.1 µM (active)
4,O=C(Nc1cccc(C(F)(F)F)n1)Nc1ccnc2cc(Cl)ccc12,> 3.98 µM (inactive)

# Target: Protein kinase C theta type (Homo sapiens, UniProt Q04759)
# Assay: Navigating the Kinome. Panel member name: PRKCQ
# Type: functional
row,Compound,Ki
1,CCC1CC(NS(=O)(=O)C2CC2)CC1c1ncc2cnc3[nH]ccc3n12 (stereo unspecified),0.2 µM (active)
2,O=C(Nc1cccc(C(F)(F)F)n1)Nc1ccnc2cc(OC(F)F)ccc12,> 2.51 µM (inactive)
3,O=c1[nH]c2cc(Br)cnc2[nH]1,31.6 µM (active)
4,O=C(Nc1cccc(C(F)(F)F)n1)Nc1ccnc2cc(Cl)ccc12,> 2.51 µM (inactive)

# Target: Calcium/calmodulin-dependent protein kinase type II subunit alpha (Homo sapiens, UniProt Q9UQM7)
# Assay: Navigating the Kinome. Panel member name: CAMK2A
# Type: functional
row,Compound,Ki
1,CCC1CC(NS(=O)(=O)C2CC2)CC1c1ncc2cnc3[nH]ccc3n12 (stereo unspecified),2.51 µM (active)
2,O=C(Nc1cccc(C(F)(F)F)n1)Nc1ccnc2cc(OC(F)F)ccc12,> 6.31 µM (inactive)
3,O=C(Nc1cccc(C(F)(F)F)n1)Nc1ccnc2cc(Cl)ccc12,> 7.94 µM (inactive)

# Target: cAMP-dependent protein kinase catalytic subunit alpha (Homo sapiens, UniProt P17612)
# Type: functional
row,Compound,Ki
1,CCC1CC(NS(=O)(=O)C2CC2)CC1c1ncc2cnc3[nH]ccc3n12 (stereo unspecified),0.2 µM (active)
2,O=c1[nH]c2cc(Br)cnc2[nH]1,> 50.1 µM (inactive)
3,O=C(Nc1cccc(C(F)(F)F)n1)Nc1ccnc2cc(Cl)ccc12,> 1.26 µM (inactive)

# Target: Casein kinase I isoform alpha (Homo sapiens, UniProt P48729)
# Type: functional
row,Compound,Ki
1,CCC1CC(NS(=O)(=O)C2CC2)CC1c1ncc2cnc3[nH]ccc3n12 (stereo unspecified),> 3.98 µM (inactive)
2,O=C(Nc1cccc(C(F)(F)F)n1)Nc1ccnc2cc(OC(F)F)ccc12,> 3.98 µM (inactive)
3,O=c1[nH]c2cc(Br)cnc2[nH]1,6.31 µM (active)
4,O=C(Nc1cccc(C(F)(F)F)n1)Nc1ccnc2cc(Cl)ccc12,> 3.98 µM (inactive)

# Target: Focal adhesion kinase 1 (Homo sapiens, UniProt Q05397);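 further: measured as one member of a kinome panel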
# Type: functional
row,Compound,Ki
1,CCC1CC(NS(=O)(=O)C2CC2)CC1c1ncc2cnc3[nH]ccc3n12 (stereo unspecified),> 6.31 µM (inactive)
2,O=C(Nc1cccc(C(F)(F)F)n1)Nc1ccnc2cc(OC(F)F)ccc12,> 6.31 µM (inactive)
3,O=c1[nH]c2cc(Br)cnc2[nH]1,31.6 µM (active)

# Target: Tyrosine-protein kinase ABL1 (Homo sapiens, UniProt P00519)
# Type: functional
# Chain of Tyrosine-protein kinase ABL1 (P00519 whole entry): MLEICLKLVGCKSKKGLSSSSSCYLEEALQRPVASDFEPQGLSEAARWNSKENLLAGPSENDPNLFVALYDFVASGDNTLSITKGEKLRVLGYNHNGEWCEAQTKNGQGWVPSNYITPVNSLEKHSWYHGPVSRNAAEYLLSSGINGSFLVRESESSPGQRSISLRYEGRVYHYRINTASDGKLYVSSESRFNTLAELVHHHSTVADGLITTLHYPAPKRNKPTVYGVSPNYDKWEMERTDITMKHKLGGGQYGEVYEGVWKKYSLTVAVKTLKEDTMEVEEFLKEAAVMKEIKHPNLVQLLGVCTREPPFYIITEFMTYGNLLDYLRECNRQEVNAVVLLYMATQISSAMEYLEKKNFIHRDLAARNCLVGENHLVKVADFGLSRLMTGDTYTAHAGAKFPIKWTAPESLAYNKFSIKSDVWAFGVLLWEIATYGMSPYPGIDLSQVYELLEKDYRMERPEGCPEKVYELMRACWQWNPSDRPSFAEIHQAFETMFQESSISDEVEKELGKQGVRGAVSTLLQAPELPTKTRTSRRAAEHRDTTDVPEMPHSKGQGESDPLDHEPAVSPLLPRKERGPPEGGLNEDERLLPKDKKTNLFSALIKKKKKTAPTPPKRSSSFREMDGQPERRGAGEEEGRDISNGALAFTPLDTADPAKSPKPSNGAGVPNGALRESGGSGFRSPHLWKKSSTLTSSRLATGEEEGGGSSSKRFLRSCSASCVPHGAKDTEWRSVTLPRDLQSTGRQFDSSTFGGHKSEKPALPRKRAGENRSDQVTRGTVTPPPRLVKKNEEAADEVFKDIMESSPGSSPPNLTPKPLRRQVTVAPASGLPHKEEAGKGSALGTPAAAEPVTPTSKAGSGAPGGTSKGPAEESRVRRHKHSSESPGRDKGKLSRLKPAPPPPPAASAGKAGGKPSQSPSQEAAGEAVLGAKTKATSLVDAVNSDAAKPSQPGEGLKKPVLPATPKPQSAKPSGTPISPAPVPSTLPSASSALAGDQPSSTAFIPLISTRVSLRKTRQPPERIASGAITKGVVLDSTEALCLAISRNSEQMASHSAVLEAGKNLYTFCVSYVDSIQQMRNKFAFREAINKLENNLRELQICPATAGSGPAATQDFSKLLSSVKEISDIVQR
row,Compound,Ki
1,O=C(Nc1cccc(C(F)(F)F)n1)Nc1ccnc2cc(OC(F)F)ccc12,> 3.16 µM (inactive)
2,O=c1[nH]c2cc(Br)cnc2[nH]1,15.8 µM (active)
3,O=C(Nc1cccc(C(F)(F)F)n1)Nc1ccnc2cc(Cl)ccc12,3.98 µM (active)

# Target: Dual specificity tyrosine-phosphorylation-regulated kinase 1A (Homo sapiens, UniProt Q13627);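 further: measured against DYRK1A as one member of a broad kinome profiling panel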
# Type: functional
row,Compound,Ki
1,CCC1CC(NS(=O)(=O)C2CC2)CC1c1ncc2cnc3[nH]ccc3n12 (stereo unspecified),> 2 µM (inactive)
2,O=C(Nc1cccc(C(F)(F)F)n1)Nc1ccnc2cc(OC(F)F)ccc12,> 2 µM (inactive)
3,O=c1[nH]c2cc(Br)cnc2[nH]1,3.98 µM (active)
4,O=C(Nc1cccc(C(F)(F)F)n1)Nc1ccnc2cc(Cl)ccc12,> 2 µM (inactive)

# Target: Glycogen synthase kinase-3 alpha (Homo sapiens, UniProt P49840);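 further: GSK3A result taken from a broad kinome-wide kinase panel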
# Type: functional
row,Compound,Ki
1,CCC1CC(NS(=O)(=O)C2CC2)CC1c1ncc2cnc3[nH]ccc3n12 (stereo unspecified),> 3.98 µM (inactive)
2,O=C(Nc1cccc(C(F)(F)F)n1)Nc1ccnc2cc(OC(F)F)ccc12,0.0158 µM (active)
3,O=c1[nH]c2cc(Br)cnc2[nH]1,63.1 µM (active)
4,O=C(Nc1cccc(C(F)(F)F)n1)Nc1ccnc2cc(Cl)ccc12,0.0158 µM (active)

# Target: Vascular endothelial growth factor receptor 1 (Homo sapiens, UniProt P17948);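 further: measured within a kinome-wide profiling panel, FLT1 as the panel member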
# Type: functional
row,Compound,Ki
1,CCC1CC(NS(=O)(=O)C2CC2)CC1c1ncc2cnc3[nH]ccc3n12 (stereo unspecified),> 3.98 µM (inactive)
2,O=C(Nc1cccc(C(F)(F)F)n1)Nc1ccnc2cc(OC(F)F)ccc12,> 3.98 µM (inactive)
3,O=c1[nH]c2cc(Br)cnc2[nH]1,10 µM (active)
4,O=C(Nc1cccc(C(F)(F)F)n1)Nc1ccnc2cc(Cl)ccc12,> 3.98 µM (inactive)

# Target: Mitogen-activated protein kinase 9 (Homo sapiens, UniProt P45984);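 further: value from a kinome panel profiling assay, MAPK9 panel entry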
# Type: functional
# Chain of Mitogen-activated protein kinase 9 (P45984 whole entry): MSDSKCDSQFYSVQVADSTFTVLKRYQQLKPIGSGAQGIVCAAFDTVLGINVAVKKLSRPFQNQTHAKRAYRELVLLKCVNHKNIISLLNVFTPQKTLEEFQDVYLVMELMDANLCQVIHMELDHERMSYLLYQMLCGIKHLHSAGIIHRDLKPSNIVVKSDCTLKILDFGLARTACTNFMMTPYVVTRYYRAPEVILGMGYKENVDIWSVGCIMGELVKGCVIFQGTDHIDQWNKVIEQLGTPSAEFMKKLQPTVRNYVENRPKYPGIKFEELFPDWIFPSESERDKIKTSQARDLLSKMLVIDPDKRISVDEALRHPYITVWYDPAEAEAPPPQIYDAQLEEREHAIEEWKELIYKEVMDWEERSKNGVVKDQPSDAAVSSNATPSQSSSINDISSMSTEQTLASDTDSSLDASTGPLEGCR
row,Compound,Ki
1,CCC1CC(NS(=O)(=O)C2CC2)CC1c1ncc2cnc3[nH]ccc3n12 (stereo unspecified),> 3.98 µM (inactive)
2,O=C(Nc1cccc(C(F)(F)F)n1)Nc1ccnc2cc(OC(F)F)ccc12,> 3.98 µM (inactive)
3,O=C(Nc1cccc(C(F)(F)F)n1)Nc1ccnc2cc(Cl)ccc12,> 3.98 µM (inactive)

# Target: T1, Replicative DNA helicase DnaB (Mycobacterium tuberculosis, UniProt P9WMR3)
# T1 sequence (P9WMR3 whole entry): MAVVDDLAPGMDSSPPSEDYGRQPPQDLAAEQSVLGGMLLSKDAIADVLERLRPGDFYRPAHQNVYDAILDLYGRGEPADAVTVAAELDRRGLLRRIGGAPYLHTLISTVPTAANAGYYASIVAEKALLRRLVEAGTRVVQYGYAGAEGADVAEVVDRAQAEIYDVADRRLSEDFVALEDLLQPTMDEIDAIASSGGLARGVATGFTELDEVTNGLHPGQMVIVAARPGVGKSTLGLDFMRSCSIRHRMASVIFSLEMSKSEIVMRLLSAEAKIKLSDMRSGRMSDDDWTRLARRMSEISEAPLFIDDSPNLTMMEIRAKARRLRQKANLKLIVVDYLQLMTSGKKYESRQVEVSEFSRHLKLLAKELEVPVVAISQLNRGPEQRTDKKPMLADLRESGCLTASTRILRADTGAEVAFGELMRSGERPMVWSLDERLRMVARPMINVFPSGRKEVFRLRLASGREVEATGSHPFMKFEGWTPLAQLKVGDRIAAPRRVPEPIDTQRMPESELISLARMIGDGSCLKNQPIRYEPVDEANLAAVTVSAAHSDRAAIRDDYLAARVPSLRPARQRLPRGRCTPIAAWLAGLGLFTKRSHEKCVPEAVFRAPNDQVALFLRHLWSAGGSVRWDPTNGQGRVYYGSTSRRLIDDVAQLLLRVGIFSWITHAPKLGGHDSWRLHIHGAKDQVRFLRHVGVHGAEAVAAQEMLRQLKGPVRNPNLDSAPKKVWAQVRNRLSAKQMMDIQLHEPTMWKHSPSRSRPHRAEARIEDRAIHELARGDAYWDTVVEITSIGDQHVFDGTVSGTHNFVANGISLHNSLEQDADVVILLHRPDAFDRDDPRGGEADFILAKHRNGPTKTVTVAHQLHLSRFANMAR
# Assay: DnaB intein splicing inhibitors, dose response, biochemical, cell-free fluorescence (AID 449749)
# Type: functional
row,Compound,AC50
1,Cc1cc(C)c(S(=O)(=O)/N=C2\C=C(Nc3ccc(C(=O)O)cc3)C(=O)c3ccccc32)c(C)c1,0.149 µM (active)
2,O=C(Cc1ccccc1)NC1(O)C(=O)c2ccccc2C1=O,6.13 µM (active)
3,COC(=O)c1nc(-c2ccc3c(n2)C(=O)C(=N)C(OC)=C3O)c(N)c(-c2ccc(OC)c(OC)c2O)c1C,> 380 µM (inconclusive)

# Target: Cyclin-dependent kinase 5 (Homo sapiens, UniProt Q00535);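 further: CDK5 measured as one member of a kinase profiling panel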
# Type: functional
row,Compound,Ki
1,CCC1CC(NS(=O)(=O)C2CC2)CC1c1ncc2cnc3[nH]ccc3n12 (stereo unspecified),> 3.16 µM (inactive)
2,O=C(Nc1cccc(C(F)(F)F)n1)Nc1ccnc2cc(OC(F)F)ccc12,> 3.16 µM (inactive)
3,O=c1[nH]c2cc(Br)cnc2[nH]1,0.0501 µM (active)
4,O=C(Nc1cccc(C(F)(F)F)n1)Nc1ccnc2cc(Cl)ccc12,> 3.16 µM (inactive)

# Target: Tyrosine-protein kinase JAK2 (Homo sapiens, UniProt O60674);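 further: JAK2 tested as one member of a kinase panel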
# Type: functional
# Chain of Tyrosine-protein kinase JAK2 (O60674 whole entry): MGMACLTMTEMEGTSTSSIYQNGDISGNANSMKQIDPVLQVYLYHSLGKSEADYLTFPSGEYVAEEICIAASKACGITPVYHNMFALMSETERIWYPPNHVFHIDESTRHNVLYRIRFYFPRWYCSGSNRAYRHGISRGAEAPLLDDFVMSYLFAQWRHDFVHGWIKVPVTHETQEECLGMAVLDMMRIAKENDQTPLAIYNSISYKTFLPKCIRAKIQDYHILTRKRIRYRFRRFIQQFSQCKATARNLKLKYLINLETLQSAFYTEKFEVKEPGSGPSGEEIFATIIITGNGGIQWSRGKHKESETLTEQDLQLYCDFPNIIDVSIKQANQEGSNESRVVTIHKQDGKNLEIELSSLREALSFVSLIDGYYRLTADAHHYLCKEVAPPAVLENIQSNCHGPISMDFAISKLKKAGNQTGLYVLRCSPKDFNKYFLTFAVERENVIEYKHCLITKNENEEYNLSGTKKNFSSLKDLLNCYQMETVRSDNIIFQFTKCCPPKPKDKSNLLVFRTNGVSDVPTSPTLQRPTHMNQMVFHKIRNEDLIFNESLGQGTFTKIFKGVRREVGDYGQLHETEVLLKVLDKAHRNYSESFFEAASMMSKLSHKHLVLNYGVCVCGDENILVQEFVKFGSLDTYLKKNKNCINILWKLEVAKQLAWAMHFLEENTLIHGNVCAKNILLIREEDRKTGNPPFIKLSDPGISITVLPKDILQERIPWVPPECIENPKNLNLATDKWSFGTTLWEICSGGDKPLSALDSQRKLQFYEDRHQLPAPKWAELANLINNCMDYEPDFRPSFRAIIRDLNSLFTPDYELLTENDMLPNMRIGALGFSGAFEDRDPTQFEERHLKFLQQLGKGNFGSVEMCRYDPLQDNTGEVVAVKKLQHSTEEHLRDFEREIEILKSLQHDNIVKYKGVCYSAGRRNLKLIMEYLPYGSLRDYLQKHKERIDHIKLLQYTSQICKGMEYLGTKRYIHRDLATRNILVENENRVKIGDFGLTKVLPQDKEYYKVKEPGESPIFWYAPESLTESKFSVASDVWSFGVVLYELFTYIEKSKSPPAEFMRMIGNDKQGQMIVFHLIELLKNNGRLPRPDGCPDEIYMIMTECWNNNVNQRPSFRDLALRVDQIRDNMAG
row,Compound,Ki
1,CCC1CC(NS(=O)(=O)C2CC2)CC1c1ncc2cnc3[nH]ccc3n12 (stereo unspecified),0.000126 µM (active)
2,O=C(Nc1cccc(C(F)(F)F)n1)Nc1ccnc2cc(OC(F)F)ccc12,> 2.51 µM (inactive)
3,O=c1[nH]c2cc(Br)cnc2[nH]1,79.4 µM (active)
4,O=C(Nc1cccc(C(F)(F)F)n1)Nc1ccnc2cc(Cl)ccc12,2.51 µM (active)

# Target: Rho-associated protein kinase 1 (Homo sapiens, UniProt Q13464);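 further: measured within a broad kinome-wide panel profiling many kinases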
# Type: functional
row,Compound,Ki
1,CCC1CC(NS(=O)(=O)C2CC2)CC1c1ncc2cnc3[nH]ccc3n12 (stereo unspecified),0.0316 µM (active)
2,O=C(Nc1cccc(C(F)(F)F)n1)Nc1ccnc2cc(OC(F)F)ccc12,> 3.98 µM (inactive)
3,O=c1[nH]c2cc(Br)cnc2[nH]1,50.1 µM (active)
4,O=C(Nc1cccc(C(F)(F)F)n1)Nc1ccnc2cc(Cl)ccc12,> 3.98 µM (inactive)

# Target: Aurora kinase B (Homo sapiens, UniProt Q96GD4)
# Type: functional
row,Compound,Ki
1,O=C(Nc1cccc(C(F)(F)F)n1)Nc1ccnc2cc(OC(F)F)ccc12,> 3.98 µM (inactive)
2,O=c1[nH]c2cc(Br)cnc2[nH]1,5.01 µM (active)
3,O=C(Nc1cccc(C(F)(F)F)n1)Nc1ccnc2cc(Cl)ccc12,> 3.98 µM (inactive)

# Target: T2, Tyrosine-protein kinase receptor TYRO3 (Homo sapiens, UniProt Q06418);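 further: TYRO3 value obtained as one member of a kinome-wide profiling panel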
# T2 sequence (Q06418 whole entry): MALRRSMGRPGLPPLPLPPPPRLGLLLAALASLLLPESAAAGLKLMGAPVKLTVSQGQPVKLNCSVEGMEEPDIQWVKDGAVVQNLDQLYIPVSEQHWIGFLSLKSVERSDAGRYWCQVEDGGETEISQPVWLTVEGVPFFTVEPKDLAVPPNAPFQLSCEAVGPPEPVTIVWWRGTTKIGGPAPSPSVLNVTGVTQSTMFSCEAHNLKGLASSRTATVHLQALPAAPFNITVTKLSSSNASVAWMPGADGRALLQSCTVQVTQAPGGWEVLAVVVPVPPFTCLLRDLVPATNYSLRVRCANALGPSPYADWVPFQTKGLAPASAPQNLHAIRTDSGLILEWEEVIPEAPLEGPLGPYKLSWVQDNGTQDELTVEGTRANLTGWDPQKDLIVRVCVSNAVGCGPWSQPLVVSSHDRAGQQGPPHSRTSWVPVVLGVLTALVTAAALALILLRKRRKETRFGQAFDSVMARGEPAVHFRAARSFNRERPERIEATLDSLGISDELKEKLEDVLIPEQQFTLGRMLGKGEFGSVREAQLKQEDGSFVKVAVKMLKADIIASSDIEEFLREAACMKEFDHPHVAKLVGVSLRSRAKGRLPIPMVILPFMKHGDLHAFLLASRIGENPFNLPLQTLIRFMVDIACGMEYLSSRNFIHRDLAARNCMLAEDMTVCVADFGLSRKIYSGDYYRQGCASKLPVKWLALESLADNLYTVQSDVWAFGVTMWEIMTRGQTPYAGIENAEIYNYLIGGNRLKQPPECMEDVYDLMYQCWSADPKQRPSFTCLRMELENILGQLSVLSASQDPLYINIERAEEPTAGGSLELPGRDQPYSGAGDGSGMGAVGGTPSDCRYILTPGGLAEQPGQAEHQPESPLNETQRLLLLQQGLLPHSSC
# Type: functional
row,Compound,Ki
1,CCC1CC(NS(=O)(=O)C2CC2)CC1c1ncc2cnc3[nH]ccc3n12 (stereo unspecified),> 2 µM (inactive)
2,O=C(Nc1cccc(C(F)(F)F)n1)Nc1ccnc2cc(OC(F)F)ccc12,> 3.16 µM (inactive)
3,O=c1[nH]c2cc(Br)cnc2[nH]1,31.6 µM (active)
4,O=C(Nc1cccc(C(F)(F)F)n1)Nc1ccnc2cc(Cl)ccc12,> 3.16 µM (inactive)
